Patent US20230083012A1, “DIHYDROPYRIMIDINE DERIVATIVES AND USES THEREOF IN THE TREATMENT OF HBV INFECTION OR OF HBV-INDUCED DISEASES” (priority 2019, published 2023)
pEC50: −log10 of the molar value. Read-outs that look alike come from different tables or passages of the source.

Experiments:
Format in all cases: cell-based
HBV = assay: Anti-HBV activity in HepG2.2.15 cells (HBV DNA in culture medium by qPCR)
Procedure, shortened: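 HepG2.2.15 cells in 2% FBS medium at 37 °C were treated with compounds for 6 days, with medium and compound refreshed at day 3; 1:3 dilutions, 8 concentrations in triplicate, top 10 or 1 uM. HBV DNA in culture medium quantified by qPCR to derive EC50; CC50 from parallel plates (top 100 uM).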

HepG2.2.15 cells = assay: Cytotoxicity determination in HepG2.2.15 cells (CCK-8 cell viability); settings: 6 days treatment, CCK-8 assay, highest concentration 100 uM
Procedure, shortened: (§1)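 HepG2.2.15 cells seeded at 5,000 cells/well in 2% FBS medium, exposed 6 days to compounds (8-point 1:3 dilutions from 100 uM, triplicate), refreshed at day 3. Viability read by CCK-8 after 2.5 h at 37° C, absorbance 450 nm with 630 nm reference; CC50 calculated.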

[1] = as above; settings: human, 6 days treatment, CCK-8 assay, highest concentration 100 uM
Procedure, shortened: as §1

[2] = HepG2.2.15 cells, 6 days treatment, HBV DNA in culture medium quantified by real-time PCR, read-out: EC50
[3] = Hepatitis B virus, HepG2.2.15, 144 h, HepG2.2.15 cells, 6 days treatment, HBV DNA in culture medium quantified by real-time PCR, read-out: EC50

Row | SMILES | pEC50 (HBV; [2]) | CC50 (HepG2.2.15 cells) [nM] | pEC50 (HBV; [3]) | CC50 at 6 days [1] [nM] | pEC50 (HBV; Hepatitis B virus, HepG2.2.15, 144 h)
1 | COC(=O)C1=C(CN2CC(F)(F)[C@H]3[C@@H]2CCN3C[C@@H](C)C(=O)O)NC(c2nccs2)=N[C@H]1c1cccc(F)c1C (single isomer, unassigned) [Compound 131B, 3-((cis)-6,6-Difluoro-4-(((S*)-6-(3-fluoro-2-methylphenyl)-5-(methoxycarbonyl)-2-(thiazol-2-yl)-3,6-dihydropyrimidin-4-yl)methyl)hexahydropyrrolo[3,2-b]pyrrol-1(2H)-yl)-2-methylpropanoic acid] | 7.53 | 65600 | – | – | –
2 | CCOC(=O)C1=C(CN2CC(F)(F)C3CN(CC(C)C(=O)O)CC32)NC(c2nccs2)=N[C@H]1c1cccc(F)c1C (stereo in doubt) [Compound 15, 3-((cis)-1-(((S)-5-(ethoxycarbonyl)-6-(3-fluoro-2-methylphenyl)-2-(thiazol-2-yl)-3,6-dihydropyrimidin-4-yl)methyl)-3,3-difluorohexahydropyrrolo[3,4-b]pyrrol-5(1H)-yl)-2-methylpropanoic acid] | – | – | 7.22 | > 100000 | –
3 | CCOC(=O)C1=C(CN2CC(F)(F)[C@@H]3[C@H]2CN(C(=O)C(F)(F)F)N3CCC(C)(C)C(=O)O)NC(c2nccs2)=N[C@H]1c1cccc(F)c1C (stereo in doubt) [Compound 71, 4-((cis)-4-(((S)-5-(ethoxycarbonyl)-6-(3-fluoro-2-methylphenyl)-2-(thiazol-2-yl)-3,6-dihydropyrimidin-4-yl)methyl)-6,6-difluoro-2-(2,2,2-trifluoroacetyl)hexahydropyrrolo[3,2-c]pyrazol-1(2H)-yl)-2,2-dimethylbutanoic acid] | – | – | – | 20900 | 7.54
4 | CCOC(=O)C1=C(CN2CC(F)(F)C3C2CCN3CC(C)(C)C(=O)O)NC(c2nccs2)=N[C@H]1c1cccc(F)c1C (stereo partly drawn) [Compound 1, 3-(4-(((S)-5-(ethoxycarbonyl)-6-(3-fluoro-2-methylphenyl)-2-(thiazol-2-yl)-3,6-dihydropyrimidin-4-yl)methyl)-6,6-difluorohexahydropyrrolo[3,2-b]pyrrol-1(2H)-yl)-2,2-dimethylpropanoic acid] | – | – | 7.97 | 24800 | –
5 | CCOC(=O)C1=C(CN2CC(F)(F)C3CC(C(=O)O)CC32)NC(c2nccs2)=N[C@H]1c1cccc(F)c1C (stereo partly drawn) [Compound 2, (cis)-1-(((S)-5-(ethoxycarbonyl)-6-(3-fluoro-2-methylphenyl)-2-(thiazol-2-yl)-3,6-dihydropyrimidin-4-yl)methyl)-3,3-difluorooctahydrocyclo-penta[b]pyrrole-5-carboxylic acid] | – | – | 8.39 | 26700 | –
6 | CCOC(=O)C1=C(CN2CCC3C(=O)N(CC(C)(C)C(=O)O)C(=O)C32)NC(c2nccs2)=N[C@H]1c1cccc(F)c1C (stereo partly shown) [Compound 4] | – | – | 7.25 | 47800 | –
7 | CCOC(=O)C1=C(CN2CC(F)(F)C3C(=O)N(CC(C)(C)C(=O)O)CC32)NC(c2nccs2)=N[C@H]1c1cccc(F)c1C (stereo partly shown) [Compound 5] | – | – | 7.64 | 90100 | –
8 | CCOC(=O)C1=C(CN2CC(F)C3C2CCN3CC(C)(C)C(=O)O)NC(c2nccs2)=N[C@H]1c1cccc(F)c1C (stereo partly drawn) [Compound 11, 3-(4-(((S)-5-(ethoxycarbonyl)-6-(3-fluoro-2-methylphenyl)-2-(thiazol-2-yl)-3,6-dihydropyrimidin-4-yl)methyl)-6-fluorohexahydropyrrolo[3,2-b]pyrrol-1(2H)-yl)-2,2-dimethylpropanoic acid] | – | – | 7.15 | 37300 | –
9 | CCOC(=O)C1=C(CN2CC(F)(F)C3CN(CC(C)(C)C(=O)O)C(=O)C32)NC(c2nccs2)=N[C@H]1c1cccc(F)c1C (stereo partly shown) [Compound 13] | – | – | 8.08 | 50000 | –
10 | CCOC(=O)C1=C(CN2CC(F)(F)C3CN(CC4(C(=O)O)CC4)CC32)NC(c2nccs2)=N[C@H]1c1cccc(F)c1C (stereo partly shown) [Compound 16] | – | – | 6.95 | 37200 | –
11 | CCOC(=O)C1=C(CN2CCC3C(=O)N(CC(C)(C)C(=O)O)CC32)NC(c2nccs2)=N[C@H]1c1cccc(F)c1C (stereo partly shown) [Compound 25] | – | – | 7.02 | 95500 | –
12 | CCOC(=O)C1=C(CN2CC(F)(F)C3C2CCN3NCC(C)(C)C(=O)O)NC(c2nccs2)=N[C@H]1c1cccc(F)c1C (stereo partly shown) [Compound 27] | – | – | 7.38 | 13900 | –
13 | CCOC(=O)C1=C(CN2CC(F)(F)C3C2CN(C(C)=O)N3CCC(C)(C)C(=O)O)NC(c2nccs2)=N[C@H]1c1cccc(F)c1C (stereo partly drawn) [Compound 70, 4-(2-acetyl-4-(((S)-5-(ethoxycarbonyl)-6-(3-fluoro-2-methylphenyl)-2-(thiazol-2-yl)-3,6-dihydropyrimidin-4-yl)methyl)-6,6-difluorohexahydropyrrolo[3,2-c]pyrazol-1(2H)-yl)-2,2-dimethylbutanoic acid] | – | – | 8.09 | 27100 | –
14 | CCOC(=O)C1=C(CN2CC(F)(F)[C@H]3[C@@H]2CN(C(C)=O)N3CCC(C)(C)C(=O)O)NC(c2nccs2)=N[C@H]1c1cccc(F)c1C [Compound 70A, 4-((cis)-2-Acetyl-4-(((S)-5-(ethoxycarbonyl)-6-(3-fluoro-2-methylphenyl)-2-(thiazol-2-yl)-3,6-dihydropyrimidin-4-yl)methyl)-6,6-difluorohexahydropyrrolo[3,2-c]pyrazol-1(2H)-yl)-2,2-dimethylbutanoic acid] | 7.46 | – | – | > 50000 | –
15 | CCOC(=O)C1=C(CN2CC(F)(F)[C@H]3[C@@H]2CN(C(C)=O)N3CCC(C)(C)C(=O)O)NC(c2nccs2)=N[C@H]1c1cccc(F)c1C [Compound 70B, 4-((cis)-2-Acetyl-4-(((S)-5-(ethoxycarbonyl)-6-(3-fluoro-2-methylphenyl)-2-(thiazol-2-yl)-3,6-dihydropyrimidin-4-yl)methyl)-6,6-difluorohexahydropyrrolo[3,2-c]pyrazol-1(2H)-yl)-2,2-dimethylbutanoic acid] | 7.80 | > 50000 | – | – | –
16 | CCOC(=O)C1=C(CN2CC(F)(F)C3C2CN(C(C)=O)N3CCC(CC)C(=O)O)NC(c2nccs2)=N[C@H]1c1cccc(F)c1C (stereo partly shown) [Compound 78] | – | – | 7.31 | 70300 | –
17 | CCOC(=O)C1=C(CN2CC(F)C3C(=O)N(CC(C)(C)C(=O)O)CC32)NC(c2nccs2)=N[C@H]1c1cccc(F)c1C (stereo partly drawn) [Compound 186, 3-((cis)-1-(((S)-5-(ethoxycarbonyl)-6-(3-fluoro-2-methylphenyl)-2-(thiazol-2-yl)-3,6-dihydropyrimidin-4-yl)methyl)-3-fluoro-4-oxohexahydropyrrolo[3,4-b]pyrrol-5(1H)-yl)-2,2-dimethylpropanoic acid] | – | – | 8.05 | 66900 | –
